Test results taken from PubChem BioAssay (NCI).
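Tested at 5 concentrations; 48 h exposure; 96-well plates; endpoints linearly interpolated, else capped at highest concentration. The concentration for 50% growth inhibition is given as GI50. At the TGI there is no net growth.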 Where a SMILES comes first, the peptide text is derived from it. [ ]: non-standard residue; d: D form. 2Nal = N[CH](Cc1ccc2ccccc2c1)C(=O)O

Experiments:
Test in all cases: NCI tumour cell line growth inhibition, 48 h
[1] = system: KM20L2 colon
[2] = system: RXF-631 renal
[3] = system: LXFL 529 NSCLC
[4] = system: DMS 273 small cell lung
[5] = system: MDA-MB-231 breast
[6] = system: MDA-N

| Structure (SMILES) | TGI [1] | TGI [3] | TGI [4] | GI50 [5] | TGI [5] | other results |
| --- | --- | --- | --- | --- | --- | --- |
| CSc1s[s+]c(SC)c1[O-] | > 100 µM | 38.7 µM | > 100 µM |  |  | TGI [2]: 41.8 µM |
| C=CCSc1n[nH]c(-c2cccs2)n1 |  |  |  | > 100 µM | > 100 µM |  |
| O=C=Nc1ccc(Cc2ccc(N=C=O)cc2)cc1 (tested in a mixture with another compound) |  |  |  | > 25 µg/mL | > 25 µg/mL | GI50 [6]: > 25 µg/mL; TGI [6]: > 25 µg/mL |
| COc1ccc(OC)c(CCc2cc(OC)c(OC)cc2C)c1 | > 100 µM | > 100 µM |  |  |  |  |
| COc1ccc(C(=O)C(C(=O)C(=O)Nc2nc3ccc(OC)cc3s2)c2ccc(OC)cc2)cc1 (stereo not drawn) | > 100 µM | > 100 µM | > 100 µM |  |  | TGI [2]: > 100 µM |
| Cc1ccc(C(=O)/C=C/c2ccccc2Cl)cc1 | 30.9 µM | 28.7 µM | 29.4 µM |  |  |  |
| Oc1cccc(C2SCc3nc4ccccc4n32)c1 (stereo not drawn) |  | > 100 µM | > 100 µM |  |  |  |
| O=C(Nc1cc(C(F)(F)F)ccc1Cl)C(=O)C(C(=O)c1ccc2ccccc2c1)C1OC(=O)c2ccccc21 (stereo not drawn) | 39.1 µM | 20.5 µM |  |  |  |  |
| COC1OC(C)C(OC(=O)C(C)(C)C)C(C)(O)C1O (stereo not drawn) | > 100 µM | > 100 µM | > 100 µM |  |  |  |
| C=CC1=C(C)C2=NC1=CC1=NC(=C(CC)/C1=C/O)C=C1C=C3C(=O)C(C(=O)OC)C(=C4NC(=C2)C(C)C4CCC(=O)OC/C=C(\C)CCCC(C)CCCC(C)CCCC(C)C)C3=N1 (stereo not drawn) (tested in a mixture with another compound) |  |  |  |  | > 100 µM | TGI [6]: > 100 µM |
| c1ccc(-c2cc(-c3cc(-c4ccccn4)[nH]n3)n[nH]2)nc1 |  |  |  |  | > 100 µM | TGI [6]: > 100 µM |
| Fc1cccc(F)c1C1SCc2nc3ccccc3n21 (stereo not drawn) | > 100 µM | > 100 µM | > 100 µM |  |  |  |
| CC(NC(=O)C(N)Cc1ccccc1)C(=O)NC(Cc1ccc(O)cc1)C(=O)NC(Cc1c[nH]c2ccccc12)C(=O)NC(CCCCN)C(=O)NC(C(=O)NC(C)C(=O)NC(Cc1ccc2ccccc2c1)C(N)=O)C(C)C (stereo not drawn) (H-FAYWKVA[2Nal]-NH2; configuration not given here) | 78 µM |  | 54.1 µM |  | > 12.5 µM |  |
| COc1ccc2[nH]cc(/C=C3\C(=O)Nc4ccccc43)c2c1 |  |  |  | 3.95 µM | 21.9 µM |  |
| CN(C)CCCC1(c2ccc(F)cc2)OCc2cc(-c3ccc4cc[nH]c4c3)ccc21 (stereo not drawn) |  |  |  | 1.65 µM | 3.22 µM |  |
| C[C@]12CC[C@@H]3c4ccc(O)cc4CC[C@H]3[C@@H]1CC[C@@H]2NS(=O)(=O)c1cccc(Br)c1 |  |  |  | 3.88 µM | 13.9 µM |  |
| CN/N=C(\C)CC(=O)Nc1cccc(Cl)c1C | > 100 µM | > 100 µM | > 100 µM |  |  | TGI [2]: > 100 µM |
| O=C(c1cccs1)c1c(C(F)(F)F)n([O-])c2cc(F)c(F)cc2[n+]1=O |  |  |  | 1 µM | 3.32 µM |  |
| O=C1c2cccc3c(N4CCN(c5ccc6c7c(cccc57)C(=O)N(CCN5CCNCC5)C6=O)CC4)ccc(c23)C(=O)N1CCN1CCNCC1 |  |  |  | 10.4 µM | 25.1 µM |  |
| Cc1ccc(NC(=O)SCCC(=O)O)cc1NC(=O)SCCC(=O)O | > 100 µM | > 100 µM | > 10 µM |  |  |  |

| Structure (SMILES) | TGI [1] | TGI [3] | TGI [4] | GI50 [5] | TGI [5] | other results |
| --- | --- | --- | --- | --- | --- | --- |
| COc1ccc2cc(C(=O)/C=C/c3ccc(OC)c(OC)c3)ccc2c1 |  |  |  | 4.75 µM | 42.8 µM |  |
| CC1CC(=O)C(C(O)CC2CC(=O)N(c3ccccc3)C(=O)C2)C(C)C1 (stereo not drawn) | > 100 µM | > 100 µM | > 100 µM |  |  |  |
| COc1ccc(-c2c(N)[n+]([O-])c3cc(C)c(C)cc3[n+]2[O-])cc1OC | > 100 µM | > 100 µM | > 100 µM |  |  | TGI [2]: 38.8 µM |
| CCCCCCCCCCCCCCCCCC(=O)NCCCNCCCNC(=O)CCCCCCCCCCCCCCCCC | > 100 µM | > 100 µM | > 100 µM |  |  | TGI [2]: > 100 µM |
| O=C(O)/C(O)=C1/C=C(c2ccccc2)c2ccccc21 | 97.2 µM | 91.4 µM | 33.1 µM |  |  | TGI [2]: 86.3 µM |
| N#CC1=C(N)Oc2c(sc3c(F)cccc23)C1c1ccc([N+](=O)[O-])cc1 (stereo not drawn) |  |  |  | 0.215 µM | 1.21 µM |  |
| Cc1ccccc1NC(=O)C(=O)Cc1nc2ccccc2s1 |  | > 100 µM | > 100 µM |  |  | TGI [2]: > 100 µM |
| Cc1cc(N2CCN(C)CC2)nc(NC2CCCC(Nc3ccnc4cc(Cl)ccc34)C2)n1 (stereo not drawn) |  |  |  | 1.78 µM | 4.25 µM |  |
| Nc1cc(C(F)F)c(-c2nc(N3[C@@H]4CC[C@H]3COC4)nc(N3[C@@H]4CC[C@H]3COC4)n2)cn1 |  |  |  | 0.406 µM | > 93.3 µM |  |
| O=C1OC(c2ccc([N+](=O)[O-])cc2)=N/C1=C\c1ccc(O)cc1 |  |  |  |  | > 100 µM | TGI [6]: > 100 µM |
| COc1cc2cc(C(=O)O)[nH]c2cc1OCc1ccccc1 |  |  |  | > 100 µM | > 100 µM |  |
| CCOC(=O)c1cc(C(=O)c2cc(OC)cc(OC)c2)n2ncccc12 |  |  |  | 8.18 µM | > 100 µM |  |
| C=C(CO)CC(O)c1ccccc1 (stereo not drawn) | > 100 µM | > 100 µM | > 100 µM |  |  | TGI [2]: > 100 µM |
| NC(C(=O)O)C(N)C(=O)O (stereo not drawn) |  |  |  |  | > 100 µM | TGI [6]: > 100 µM |
| Cc1ccnc2c1NC(=O)c1cccnc1N2C1CC1 |  |  |  | > 100 µM | > 100 µM |  |
| COC(=O)/C(=C/N1CCN(C(=O)c2ccco2)C1=S)C(C)=O |  |  |  | 9.01 µM | 26.5 µM |  |
| O=C(O)C1Cc2nc[nH]c2CN1 (stereo not drawn) | > 100 µM | > 100 µM | > 100 µM |  |  | TGI [2]: > 100 µM |
| COc1cc(/C=C2\C(=O)N(c3c(Cl)cccc3Cl)c3ccccc32)cc(OC)c1O |  |  |  | 2.56 µM | 31.5 µM |  |
| CC1=CCC2(C#N)CCC1C2=O (stereo not drawn) | > 100 µM | > 100 µM |  |  |  | TGI [2]: > 100 µM |
| CC(C)OCN1COCN=C1NC#N | > 100 µM | > 100 µM | > 100 µM |  |  | TGI [2]: > 100 µM |
